# Measured values: patent US20130143886A1, “METHODS FOR PRESERVING AND/OR INCREASING RENAL FUNCTION USING XANTHINE OXIDOREDUCTASE INHIBITORS” (priority 2006, published 2013)
# Experiments:
# Type in all cases: in vivo, Male Wistar rats
# remnant kidney (RK) rats [1] = assay: Plasma uric acid in remnant kidney rats; conditions: RK+OA rats, end of four weeks
# Procedure: Male Wistar rats (295-340 g) were used to produce rats with remnant kidney (RK) as follows. […] Rats were then assigned to one of four treatment groups: Group 1, RK control rats (n=7); Group 2, RK+febuxostat (Fx) rats (n=8); Group 3, RK+oxonic acid (OA) rats (n=6); and Group 4, RK+OA+Fx (n=10). Oxonic acid (OA) (Sigma-Aldrich, St Louis Mo., USA), administered at 750 mg/kg body weight daily by oral gavage, was given starting the day after the ⅚ nephrectomy. Beginning immediately following the surgery, febuxostat was administered in drinking water at 30 mg/L (3-4 mg/kg/day), whereas the respective controls received only drinking water (with 3.5 mg/L of NaCl added to keep an equivalent salt concentration to the Fx-containing water). All groups were treated for four weeks. Body weight (beginning just before surgery) and food and water intakes were measured daily. Systolic blood pressure, measured in conscious rats by a tail cuff sphygmomanometer, and plasma uric acid (UA) levels were measured at just before surgery (namely, at baseline) and at the end of the four weeks. Proteinuria was measured at baseline and at the end of two and four weeks. A renal micropuncture procedure along with systemic blood pressure monitoring under pentobarbital anesthesia was performed at the end of four weeks followed by morphologic evaluation of the renal preglomerular microvasculature. Food and water intake were determined daily. Systolic blood pressure (SBP) was measured by a tail-cuff sphygmomanometer using an automated system (XBP-100; Kent Scientific Co, Torrington, Conn., USA) in conscious animals. […] Plasma uric acid was quantified using a commercial kit (Diagnostic Chemicals Ltd, Charlottetown, PEI, Canada). Proteinuria was determined by turbidimetry by the method of trichloroacetic acid as described in Henry R J et al., “Turbidimetric determination of proteins with sulfosalicylic and tricholoroacetic acids”, Proc Soc Exp Biol Med 92:748-751 (1956), the contents of which are herein incorporated by reference.
# remnant kidney (RK) rats [2] = assay: Renal arteriolar morphology; conditions: RK rats vs RK control group
# Procedure: Male Wistar rats (295-340 g) were used to produce rats with remnant kidney (RK) as follows. […] Rats were then assigned to one of four treatment groups: Group 1, RK control rats (n=7); Group 2, RK+febuxostat (Fx) rats (n=8); Group 3, RK+oxonic acid (OA) rats (n=6); and Group 4, RK+OA+Fx (n=10). Oxonic acid (OA) (Sigma-Aldrich, St Louis Mo., USA), administered at 750 mg/kg body weight daily by oral gavage, was given starting the day after the 5⁄6 nephrectomy. Beginning immediately following the surgery, febuxostat was administered in drinking water at 30 mg/L (3-4 mg/kg/day), whereas the respective controls received only drinking water (with 3.5 mg/L of NaCl added to keep an equivalent salt concentration to the Fx-containing water). After the micropuncture study, kidneys were washed by perfusion with phosphate-buffered saline and then fixed with 4% paraformaldehyde. Renal biopsies were embedded in paraffin. Sections of 4-μm thick fixed tissue were stained with periodic acid Schiff (PAS) reagent and Masson's trichrome staining. Arteriolar morphology was assessed by indirect peroxidase immunostaining for alpha-smooth muscle actin (DAKO Corp, Carpinteria, Calif., USA). Renal sections incubated with normal rabbit serum were used as negative controls for immunostaining against alpha smooth-muscle actin. For each arteriole, the outline of the vessel and its internal lumen (excluding the endothelium) were generated using computer analysis to calculate the total medial area (outline inline), in 10 arterioles per biopsy. The media/lumen ratio was calculated by the outline/inline relationship (See, Sanchez-Lozada L G et al., “Mild hyperuricemia induces glomerular hypertension in normal rats”, Am J Physiol Renal Physiol 283:[…]-[…] (2002); Sanchez-Lozada L G, et al., “Mild hyperuricemia induces vasoconstriction and maintains glomerular hypertension in normal and remnant kidney rats,” Kidney Int 67:237-247 (2005), the contents of each are herein incorporated by reference). Quantifications were performed blinded.
# remnant kidney (RK) rats [3] = assay: Body weight, food and water intake in remnant kidney rats; conditions: RK rats (RK + Fx or RK + OA group)
# Procedure: Male Wistar rats (295-340 g) were used to produce rats with remnant kidney (RK) as follows. […] Rats were then assigned to one of four treatment groups: Group 1, RK control rats (n=7); Group 2, RK+febuxostat (Fx) rats (n=8); Group 3, RK+oxonic acid (OA) rats (n=6); and Group 4, RK+OA+Fx (n=10). Oxonic acid (OA) (Sigma-Aldrich, St Louis Mo., USA), administered at 750 mg/kg body weight daily by oral gavage, was given starting the day after the ⅚ nephrectomy. Beginning immediately following the surgery, febuxostat was administered in drinking water at 30 mg/L (3-4 mg/kg/day), whereas the respective controls received only drinking water (with 3.5 mg/L of NaCl added to keep an equivalent salt concentration to the Fx-containing water). All groups were treated for four weeks. Body weight (beginning just before surgery) and food and water intakes were measured daily. Systolic blood pressure, measured in conscious rats by a tail cuff sphygmomanometer, and plasma uric acid (UA) levels were measured at just before surgery (namely, at baseline) and at the end of the four weeks. Proteinuria was measured at baseline and at the end of two and four weeks. A renal micropuncture procedure along with systemic blood pressure monitoring under pentobarbital anesthesia was performed at the end of four weeks followed by morphologic evaluation of the renal preglomerular microvasculature. Food and water intake were determined daily. Systolic blood pressure (SBP) was measured by a tail-cuff sphygmomanometer using an automated system (XBP-100; Kent Scientific Co, Torrington, Conn., USA) in conscious animals. All animals were preconditioned for blood pressure measurements one week before each experiment. Plasma uric acid was quantified using a commercial kit (Diagnostic Chemicals Ltd, Charlottetown, PEI, Canada). Proteinuria was determined by turbidimetry by the method of trichloroacetic acid as described in Henry R J et al., “Turbidimetric determination of proteins with sulfosalicylic and tricholoroacetic acids”, Proc Soc Exp Biol Med 92:748-751 (1956), the contents of which are herein incorporated by reference.
# remnant kidney (RK) rats [4] = assay: Micropuncture procedure to assess glomerular hemodynamics
# Procedure: Male Wistar rats (295-340 g) were used to produce rats with remnant kidney (RK) as follows. […] Rats were then assigned to one of four treatment groups: Group 1, RK control rats (n=7); Group 2, RK+febuxostat (Fx) rats (n=8); […] Oxonic acid (OA) (Sigma-Aldrich, St Louis Mo., USA), administered at 750 mg/kg body weight daily by oral gavage, was given starting the day after the 5⁄6 nephrectomy. […] All groups were treated for four weeks. Body weight (beginning just before surgery) and food and water intakes were measured daily. Systolic blood pressure, measured in conscious rats by a tail cuff sphygmomanometer, and plasma uric acid (UA) levels were measured at just before surgery (namely, at baseline) and at the end of the four weeks. Proteinuria was measured at baseline and at the end of two and four weeks. A renal micropuncture procedure along with systemic blood pressure monitoring under pentobarbital anesthesia was performed at the end of four weeks followed by morphologic evaluation of the renal preglomerular microvasculature. Animals were anesthetized with pentobarbital sodium (30 mg/kg, intraperitoneal (ip)) and placed on a thermoregulated table to maintain body temperature at 37° C. Trachea, jugular veins, femoral arteries and the left ureter were catheterized with polyethylene tubing (PE-240, PE-50, and PE-10). The left kidney was exposed, placed in a Lucite holder, sealed with agar, and covered with Ringer's solution. Mean arterial pressure (MAP) was monitored with a pressure transducer (Model p23 db; Gould, San Juan, Puerto Rico) connected to the catheter in the femoral artery and recorded on a polygraph (Grass Instruments, Quincy, Mass., USA). Blood samples were taken periodically and replaced with blood from a donor rat. Rats were maintained under euvolemic conditions by infusion of 10 mL/kg of body weight of isotonic rat plasma during surgery, followed by an infusion of 25%, polyfructosan, at 2.2 ml/h (Inutest; Fresenius Kabi, Linz, Austria). After 60 minutes, five to seven samples of proximal tubular fluid were obtained to determine flow rate and polyfructosan concentrations. Intratubular pressure under free-flow (FF) and stop-flow (SFP) conditions and peritubular capillary pressure (Pc) were measured in other proximal tubules with a servo-null device (Servo Nulling Pressure System; Instrumentation for Physiology and Medicine, San Diego, Calif., USA). Glomerular colloid osmotic pressure was estimated from protein concentrations obtained from blood of the femoral artery (Ca) and surface efferent arterioles (Ce). Polyfructosan was measured in plasma and urine samples by the anthrone-based technique described by Davidson and […] in “Simplification of the anthrone method for the determination of inulin in clearance studies,” J Lab Clin Med. 62:351-356 (1963), the contents of which are herein incorporated by reference. In brief, plasma samples were deproteinated first with trichloroacetic acid. After centrifugation, the supernatant was used for polyfructosan measurement. Polyfructosan concentrations in plasma and urine samples were assessed by the addition of anthrone reagent followed by incubation at 45° C. for 50 minutes and reading in a spectrophotometer set at wavelength of 620 nm. […] Total GFR was calculated using the following formula: GFR=(U×V)/P, where U is the polyfructosan concentration in urine, V is urine flow rate, and P is the polyfructosan concentration in plasma. The volume of fluid collected from individual proximal tubules was estimated from the length of the fluid column in a constant-bore capillary tube of known internal diameter. The concentration of tubular polyfructosan was measured by the microfluorometric method described by Vurek and Pegram in “Fluorometric method for the determination of nanogram quantities of inulin,” Anal Biochem 16:409-419 (1966), the contents of which are herein incorporated by reference. […]
# [5] = RK rats (RK + Fx or RK + OA group), end of four weeks
compound,measurement,setting,value
"O=C(O)c1nc(=O)[nH]c(=O)[nH]1 [OA, oxonic acid, reference compound]",Plasma uric acid relative to the RK control rats (in words),remnant kidney (RK) rats [1],increased significantly by over two-fold
same,Thickening of preglomerular vessels / afferent arteriole (in words),remnant kidney (RK) rats [2],developed additional thickening of the afferent arteriole
same,BW,remnant kidney (RK) rats [3]; End of Week 4,328.5 ± 6.6 g
same,BW Gain (from baseline),remnant kidney (RK) rats [3]; End of Week 4,5.5 ± 10.3 g
same,Daily Food Intake,remnant kidney (RK) rats [3]; Week 1,14.2 ± 2.1 g
same,Daily Water Intake,remnant kidney (RK) rats [3]; Week 1,44.3 ± 3.5 mL
same,Daily Food Intake,remnant kidney (RK) rats [3]; Week 2,19.7 ± 0.7 g
same,Daily Water Intake,remnant kidney (RK) rats [3]; Week 2,58.6 ± 1.4 mL
same,Daily Food Intake,remnant kidney (RK) rats [3]; Week 3,21.3 ± 1.0 g
same,Daily Water Intake,remnant kidney (RK) rats [3]; Week 3,57.2 ± 2.6 mL
same,Daily Food Intake,remnant kidney (RK) rats [3]; Week 4,20.7 ± 0.9 g
same,Daily Water Intake,remnant kidney (RK) rats [3]; Week 4,48.6 ± 3.0 mL
same,GFR,remnant kidney (RK) rats [4]; [5],0.29 ± 0.06 mL/min
same,Kf,remnant kidney (RK) rats [4]; [5],0.027 ± 0.003 nL/s · mmHg
same,PGC,remnant kidney (RK) rats [4]; [5],64.4 ± 1.1 mmHg
same,QA,remnant kidney (RK) rats [4]; [5],170 ± 16 nL/min
same,SNGFR,remnant kidney (RK) rats [4]; [5],51.3 ± 4.8 nL/min
same,MAP,"remnant kidney (RK) rats [4]; RK rats (RK + Fx or RK + OA group), end of four weeks, under anesthesia",198 ± 10 mmHg
same,Glomerular plasma flow (in words),remnant kidney (RK) rats [4]; RK+OA group,significant decrease
same,GFR (in words),remnant kidney (RK) rats [4]; RK+OA rats vs RK control group,similarly low as in the RK control group
same,Single-nephron GFR (in words),remnant kidney (RK) rats [4]; RK+OA rats vs RK control group,lower compared to the RK control group
same,Afferent resistance (in words),remnant kidney (RK) rats [4]; RK+OA rats vs RK control rats,significantly elevated
